Reference: patent US11407736B2 (priority 2019, dated 2022)
Where a name gives a salt, the structure may show the parent alone. Read-outs that look alike come from different tables or passages of the source.

How the values were obtained:
U937 cells = assay: U937 cell necroptosis assay (TNFa + zVAD, CellTiter-Glo); assay type: cell-based, human
Procedure, shortened: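 Human U937 and murine L929 cells in RPMI 1640/10% FBS were pre-incubated 1 h at 37 °C with serially diluted compound plus zVAD-fmk (U937 plated with 60 uM, L929 medium with 40 uM), then stimulated with 2 ng/mL TNFa (final). Viability read by CellTiter-Glo luminescence after 18 h.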

RIPK1 = RIPK1 (Homo sapiens (Human), UniProt Q13546); assay: RIPK1 ADP-Glo biochemical kinase assay
Protocol: The final reaction volume was 5.0ul.
Adding 5 μl of ADP-Glo™ terminated the reaction.

L929 cells = assay: L929 cell necroptosis assay (TNFa + zVAD, CellTiter-Glo); assay type: cell-based, murine
Procedure, shortened: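 Murine L929 cells, plated 18 h beforehand at 10K cells/well in RPMI 1640 with 10% FBS, were switched to medium containing 40 uM zVAD-fmk and given compound from 4-fold serial dilutions. Viability after 18 h of TNFa stimulation at 37° C was read by CellTiter-Glo luminescence.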

[1] = Homo sapiens, U-937, U937 cells, TNFa + zVAD, read-out: U937 Zvad TNF CTG Recovery, U937, TNFa + zVAD (IC50)
[2] = read-out: RIPK1 ADP-Glo Kinase (IC50)
[3] = Mus musculus, L929, L929 cells, TNFa + zVAD, read-out: L929-CTG-recovery, L929, TNFa + zVAD (IC50)
[4] = U937 cells, TNFa + zVAD, read-out: U937 Zvad TNF CTG Recovery, U937, TNFa + zVAD (IC50)
[5] = L929 cells, TNFa + zVAD, read-out: L929-CTG-recovery, L929, TNFa + zVAD (IC50)

Sequence of RIPK1 (Q13546 whole entry, species assumed): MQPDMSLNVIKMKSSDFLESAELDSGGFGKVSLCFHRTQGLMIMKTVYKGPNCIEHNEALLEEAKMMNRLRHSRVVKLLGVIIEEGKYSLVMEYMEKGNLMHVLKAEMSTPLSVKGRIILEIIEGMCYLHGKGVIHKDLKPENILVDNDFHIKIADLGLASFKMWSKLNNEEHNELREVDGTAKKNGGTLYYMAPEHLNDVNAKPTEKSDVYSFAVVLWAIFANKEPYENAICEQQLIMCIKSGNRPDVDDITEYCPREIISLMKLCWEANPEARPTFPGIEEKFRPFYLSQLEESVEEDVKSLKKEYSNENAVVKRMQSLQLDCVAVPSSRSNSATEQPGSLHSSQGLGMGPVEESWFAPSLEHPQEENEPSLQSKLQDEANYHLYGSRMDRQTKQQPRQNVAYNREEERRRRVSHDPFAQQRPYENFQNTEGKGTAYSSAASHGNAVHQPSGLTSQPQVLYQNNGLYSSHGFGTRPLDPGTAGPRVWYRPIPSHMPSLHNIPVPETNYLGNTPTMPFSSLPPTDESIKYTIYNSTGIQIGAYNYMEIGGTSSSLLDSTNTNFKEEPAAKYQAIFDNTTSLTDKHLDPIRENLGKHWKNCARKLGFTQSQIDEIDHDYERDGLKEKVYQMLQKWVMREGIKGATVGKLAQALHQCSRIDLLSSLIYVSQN

SMILES	IC50 (RIPK1; [2]) [nM]	IC50 (U937 cells; [1]) [nM]	IC50 (L929 cells; [3]) [nM]	other results
CN1C(=O)[C@@H](NC(=O)c2cc(OC3CCCC3)ccn2)COc2ccc(C#CC3(O)COC3)cc21 [Compound I-157, (S)-4-(cyclopentyloxy)-N-(7-((3-hydroxyoxetan-3-yl)ethynyl)-5-methyl-4-oxo-2,3,4,5-tetrahydrobenzo[b][1,4]oxazepin-3-yl)picolinamide]	31.6	25.5	5160	
CN1CCN(C(C)(C)C#Cc2ccc3c(c2)N(C)C(=O)[C@@H](NC(=O)c2cc(Oc4ccccc4)ccn2)CO3)CC1 [Compound I-158, (S)—N-(5-methyl-7-(3-methyl-3-(4-methylpiperazin-1-yl)but-1-yn-1-yl)-4-oxo-2,3,4,5-tetrahydrobenzo[b][1,4]oxazepin-3-yl)-4-phenoxypicolinamide]		9.5	1640	IC50 (RIPK1): 14.7 nM
CN1C(=O)[C@@H](NC(=O)c2cc(Oc3ccccc3)ccn2)COc2ccc(C#CC3(OC(=O)CCC(=O)O)COC3)cc21 [Compound I-165, (S)-4-((3-((5-methyl-4-oxo-3-(4-phenoxypicolinamido)-2,3,4,5-tetrahydrobenzo[b][1,4]oxazepin-7-yl)ethynyl)oxetan-3-yl)oxy)-4-oxobutanoic acid 2-amino-2-(hydroxymethyl)propane-1,3-diol salt]	11.2			IC50 (U937 cells; [4]): 0.9 nM; IC50 (L929 cells; [5]): 47.1 nM
CN1C(=O)[C@@H](NC(=O)c2cc(Oc3ccccc3)ccn2)COc2ccc(C#CC(C)(C)N)cc21 [Compound I-167, (S)—N-(7-(3-amino-3-methylbut-1-yn-1-yl)-5-methyl-4-oxo-2,3,4,5-tetrahydrobenzo[b][1,4]oxazepin-3-yl)-4-phenoxypicolinamide hydrochloride]				IC50 (U937 cells; read-out: U937 Zvad TNF CTG Recovery, U937, TNFa + zVAD (IC50), U937 cells, TNFa + zVAD, hydrochloride): 5.3 nM; IC50 (RIPK1; hydrochloride, read-out: RIPK1 ADP-Glo Kinase (IC50)): 17.5 nM; IC50 (L929 cells; read-out: L929-CTG-recovery, L929, TNFa + zVAD (IC50), L929 cells, TNFa + zVAD, hydrochloride): 1210 nM
CN[C@@H](C)C(=O)OC1(C#Cc2ccc3c(c2)N(C)C(=O)[C@@H](NC(=O)c2cc(Oc4ccccc4)ccn2)CO3)COC1 [Compound I-193]	55.3			IC50 (U937 cells; [4]): 361 nM; IC50 (L929 cells; [5]): 7060 nM
C[C@H](N)C(=O)OC1(C#Cc2ccc3c(c2)N(C)C(=O)[C@@H](NC(=O)c2cc(Oc4ccccc4)ccn2)CO3)COC1 [Compound I-194, 3-(((S)-5-methyl-4-oxo-3-(4-phenoxypicolinamido)-2,3,4,5-tetrahydrobenzo[b][1,4]oxazepin-7-yl)ethynyl)oxetan-3-yl L-alaninate trifluoroacetic acid salt]	18.6	0.6		IC50 (L929 cells; Mus musculus, L929 cells, TNFa + zVAD, read-out: L929-CTG-recovery, L929, TNFa + zVAD (IC50)): 32.5 nM
CC(C)N1CC(O)(C#Cc2ccc3c(c2)N(C)C(=O)[C@@H](NC(=O)c2cc(Oc4ccccc4)ccn2)CO3)C1 [Compound I-195, (S)—N-(7-((3-hydroxy-1-isopropylazetidin-3-yl)ethynyl)-5-methyl-4-oxo-2,3,4,5-tetrahydrobenzo[b][1,4]oxazepin-3-yl)-4-phenoxypicolinamide]	15.3			IC50 (U937 cells; Homo sapiens, U-937, read-out: U937 Zvad TNF CTG Recovery, U937, TNFa + zVAD (IC50), U937 cells, TNFa + zVAD): 1.1 nM; IC50 (L929 cells; Mus musculus, L929, read-out: L929-CTG-recovery, L929, TNFa + zVAD (IC50), L929 cells, TNFa + zVAD): 268 nM
CN1C(=O)[C@@H](NC(=O)c2cc(Oc3ccccc3)ccn2)COc2ccc(C#Cc3cn(C)cn3)cc21 [Compound I-203, (S)—N-(5-methyl-7-((1-methyl-1H-imidazol-4-yl)ethynyl)-4-oxo-2,3,4,5-tetrahydrobenzo[b][1,4]oxazepin-3-yl)-4-phenoxypicolinamide]	23.4	0.4	4	
CN1C(=O)[C@@H](NC(=O)c2cc(Oc3ccccc3)ccn2)COc2ccc(C#CC(C)(C)N3CCOCC3)cc21 [Compound I-206, (S)—N-(5-Methyl-7-(3-methyl-3-morpholinobut-1-yn-1-yl)-4-oxo-2,3,4,5-tetrahydrobenzo[b][1,4]oxazepin-3-yl)-4-phenoxypicolinamide]		0.6	41.5	IC50 (RIPK1): 55.6 nM
CN1C(=O)[C@@H](NC(=O)c2cc(Oc3ccccc3)ccn2)COc2ccc(C#CC3(O)CCS(=O)(=O)CC3)cc21 [Compound I-207, (S)—N-(7-((4-Hydroxy-1,1-dioxidotetrahydro-2H-thiopyran-4-yl)ethynyl)-5-methyl-4-oxo-2,3,4,5-tetrahydrobenzo[b][1,4]oxazepin-3-yl)-4-phenoxypicolinamide]	27.9	0.5	116	

The remaining compounds from weak to strong by IC50 (RIPK1; [2]), led by results:

IC50 (RIPK1; [2]) [nM]	SMILES	IC50 (U937 cells; [1]) [nM]	IC50 (L929 cells; [3]) [nM]	other results
154	CN1C(=O)[C@@H](NC(=O)n2cc(Cc3ccccc3)cn2)COc2ccc(C#CC(C)(C)C)cc21 [Compound I-212, (S)-4-Benzyl-N-(7-(3,3-dimethylbut-1-yn-1-yl)-5-methyl-4-oxo-2,3,4,5-tetrahydrobenzo[b][1,4]oxazepin-3-yl)-1H-pyrazole-1-carboxamide]	4.3	267	
71.7	CC(C)[C@H](N)C(=O)OC1(C#Cc2ccc3c(c2)N(C)C(=O)[C@@H](NC(=O)c2cc(Oc4ccccc4)ccn2)CO3)COC1 [Compound I-164, 3-4(S)-5-methyl-4-oxo-3-(4-phenoxypicolinamido)-2,3,4,5-tetrahydrobenzo[b][1,4]oxazepin-7-yl)ethynyl)oxetan-3-yl L-valinate benzenesulfonic acid salt]			IC50 (U937 cells; [4]): 0.7 nM; IC50 (L929 cells; [5]): 31.9 nM
28.6	CN1C(=O)[C@@H](NC(=O)c2cc(Oc3ccccc3)ccn2)COc2ccc(C#CC(C)(C)N3CCCC3)cc21 [Compound I-210, (S)—N-(5-Methyl-7-(3-methyl-3-(pyrrolidin-1-yl)but-1-yn-1-yl)-4-oxo-2,3,4,5-tetrahydrobenzo[b][1,4]oxazepin-3-yl)-4-phenoxypicolinamide]	4.2	470	
27.8	CN1C(=O)[C@@H](NC(=O)n2cc(Cc3ccc(F)cc3)cn2)COc2ccc(C#CC3(O)CCOCC3)cc21 [Compound I-175, (S)-4-(4-fluorobenzyl)-N-(7-((4-hydroxytetrahydro-2H-pyran-4-yl)ethynyl)-5-methyl-4-oxo-2,3,4,5-tetrahydrobenzo[b][1,4]oxazepin-3-yl)-1H-pyrazole-1-carboxamide]	9	107	
27.3	CN1C(=O)[C@@H](NC(=O)c2cc(OC3CCCC3)ccn2)COc2ccc(C#CC(C)(C)O)cc21 [Compound I-156, (S)-4-(cyclopentyloxy)-N-(7-(3-hydroxy-3-methylbut-1-yn-1-yl)-5-methyl-4-oxo-2,3,4,5-tetrahydrobenzo[b][1,4]oxazepin-3-yl)picolinamide]	55.4	10300	
26.7	COC1(C#Cc2ccc3c(c2)N(C)C(=O)[C@@H](NC(=O)c2cc(Oc4ccccc4)ccn2)CO3)CNC1 [Compound I-154, (S)—N-(7-((3-methoxyazetidin-3-yl)ethynyl)-5-methyl-4-oxo-2,3,4,5-tetrahydrobenzo[b][1,4]oxazepin-3-yl)-4-phenoxypicolinamide]	3.5	656	
25.3	CC(C)[C@H](N)C(=O)OC1(C#Cc2ccc3c(c2)N(C)C(=O)[C@@H](NC(=O)c2cc(Oc4ccccc4)ccn2)CO3)COC1 [Compound I-160, 3-(((S)-5-methyl-4-oxo-3-(4-phenoxypicolinamido)-2,3,4,5-tetrahydrobenzo[b][1,4]oxazepin-7-yl)ethynyl)oxetan-3-yl L-valinate]	0.9	44.2	
19.7	CC(=O)N1CC(F)(C#Cc2ccc3c(c2)N(C)C(=O)[C@@H](NC(=O)c2cc(Oc4ccccc4)ccn2)CO3)C1 [Compound I-191, (S)—N-(7-((1-acetyl-3-fluoroazetidin-3-yl)ethynyl)-5-methyl-4-oxo-2,3,4,5-tetrahydrobenzo[b][1,4]oxazepin-3-yl)-4-phenoxypicolinamide]	0.3	21.5	
17.5	COC(=O)C#Cc1ccc2c(c1)N(C)C(=O)[C@@H](NC(=O)c1cc(Oc3ccccc3)ccn1)CO2 [Compound I-159, Methyl (S)-3-(5-methyl-4-oxo-3-(4-phenoxypicolinamido)-2,3,4,5-tetrahydrobenzo[b][1,4]oxazepin-7-yl)propiolate]	21	16100	
17.2	CN1C(=O)[C@@H](NC(=O)c2cc(Oc3ccccc3)ccn2)COc2ccc(C#CC3(O)C[S+]([O-])C3)cc21 (stereo partly drawn) [Compound I-208, (S)—N-(7-((3-Hydroxy-1-oxidothietan-3-yl)ethynyl)-5-methyl-4-oxo-2,3,4,5-tetrahydrobenzo[b][1,4]oxazepin-3-yl)-4-phenoxypicolinamide]	0.6	97.5	
